Measured values published in patent US6951727B2, “Methods and reagents for quantitation of cell-surface molecule expression on peripheral blood cells” (Becton Dickinson and Company, priority 1998, dated 2005).
“Also recorded” adds a separate entry of the source. Like-named read-outs stand apart in the source and are kept apart here.

What was measured:
[1] = tested on: HLA-DR on CD14+ peripheral blood monocytes; experiment: Stabilization of HLA-DR-specific fluorescent signal during anti-HLA-DR antibody staining of whole blood, flow cytometry; format: cell-based, human
Procedure: Peripheral blood samples were drawn from normal volunteers.
The time-dependence of the HLA-DR-specific signal detectable by flow cytometry of antibody-stained peripheral blood monocytes was assessed by varying the duration of antibody staining.
The effect of various additives on the stability of HLA-DR-specific fluorescence intensity was tested by including these reagents during the staining step.
Incubation was at room temperature for the times indicated, after which 1 ml of 1× FACS™ Lysing Solution was added and incubation continued for 10 minutes.
Following erythrocyte lysis, the samples were centrifuged at 250×g for 5 minutes, the supernatant removed, the pellet resuspended in 2 ml of PBS+0.5% BSA and recentrifuged. The final pellet was suspended in 0.5 ml of PBS+BSA and analyzed by flow cytometry, as above. Results are plotted in FIG. 2A.
A second experiment, reported in FIG. 2B, was performed similarly, but omitting the post-lysis wash step: following erythrocyte lysis, the samples were centrifuged at 250×g for 5 minutes, the supernatant, containing lysis debris, removed, and the pellet resuspended directly in 0.5 ml of PBS+0.5% BSA. Again, flow cytometric acquisition of at least 2000 monocyte events was performed, and the PE fluorescence intensity of the monocyte population plotted.
To test whether Brefeldin A and monensin would similarly stabilize HLA-DR expression in the flow cytometric assay, an additional series of experiments was performed.
To 50 μl EDTA-anticoagulated whole blood was added 10 μl staining reagent (500 ng of HLA-DR-PE and 63 ng CD14-PerCP/CY5.5 in buffered saline containing gelatin and 0.1% sodium azide); the staining reagent further included the additives noted below. Samples were incubated with staining reagent for the times indicated, after which 1 ml of 1× FACS™ Lysing Solution was added. After incubation with lysing solution for 9.5 to 11.5 minutes, samples were directly analyzed using a FACSCalibur™ brand flow cytometer (BDIS, San Jose, Calif.).
Additives to the staining composition for this latter series of experiments, reported in FIG. 2C, were: (A) nothing (“Control”); (B) 18 mM chloroquine; (C) 0.2 mM Brefeldin A; and (D) 0.013 mM monensin. Final concentrations of additives after 1:6 dilution during staining were: (B) 3 mM chloroquine; (C) 0.034 mM Brefeldin A; and (D) 0.0022mM monensin. […] 212:89-98 (1998).
The data presented in FIG. 2C were acquired immediately after lysis; in contrast to experiments the results of which are presented in FIG. 1, the removal of lysis debris (by centrifugation and aspiration, optionally followed by wash) was omitted.
A further experiment was performed to determine the minimum concentration of chloroquine needed to effect stabilization of HLA-DR expression on the surface of monocytes.
An aliquot of 50 μl peripheral blood was drawn from a healthy volunteer and mixed with 10 μl HLA-DR quantitation reagent (50 μg/ml HLA-DR PE, 6.3 μg/ml CD14 PerCP-Cy5.5, in 10 mM sodium pyrophosphate, 0.15 M NaCl, pH 8). The HLA-DR quantitation reagent further contained chloroquine at 0 mM (control), 6 mM, 12 mM, or 18 mM.
In each experiment, 4 blood samples were stained for each chloroquine level, with one each of the samples stained for 20, 40, 60 or 80 minutes.
At the end of the staining period, the samples were lysed with 1× FACS™ Lysing Solution (BDIS) and analyzed on a FACScalibur Flow Cytometer. Five hundred monocyte events were collected.

[2] = tested on: monocyte HLA-DR expression; details: cited from earlier work
[3] = tested on: CD11b on human blood cells; experiment: Stabilization of CD11b-specific fluorescent signal during antibody staining of whole blood, flow cytometry; format: cell-based; details: 3 mM final concentration, whole blood of three normal donors
Procedure: Blood from three normal adult donors was collected in standard EDTA Vacutainer® tubes and placed directly on ice. Fifty (50) μl of whole blood was transferred to a tube containing 20 μl of a cocktail of CD11b PE and CD45 PerCP antibodies with or without chloroquine, with the chloroquine-containing tubes having a final chloroquine concentration of 3 mM. Blood was stained for the indicated time at room temperature before addition of 1.0 ml FACS lysing reagent (1×). Flow cytometric analysis was performed essentially as described in Examples 1 and 2.

[4] = additive during staining, final concentration 3 mM chloroquine, 0.1% azide, 0.034 mM Brefeldin A, 0.0022 mM monensin, 10-15 to 60 min incubation

CC[C@@]1([C@@H]2O[C@@H]([C@H]3O[C@@](O)(CO)[C@H](C)C[C@@H]3C)C[C@@H]2C)CC[C@H]([C@]2(C)CC[C@]3(C[C@H](O)[C@@H](C)[C@@H]([C@@H](C)[C@@H](OC)[C@H](C)C(=O)O)O3)O2)O1 [monensin]
stabilization of HLA-DR fluorescence signal over incubation time [1, 4]: no significant stabilization

Gamma interferon: proinflammatory cytokine, major activator of monocytes
patients showing an increase in monocyte HLA-DR expression within 1 day of treatment ([2]; of 10 septic patients with fewer than 30% HLA-DR positive monocytes): 8
patients responding within 2 to 3 days ([2]; of 10 septic patients): 2
TNFα and IL-6 plasma levels during treatment ([2]; septic patients): significant increase

CCN(CC)CCCC(C)Nc1ccnc2cc(Cl)ccc12 (stereo not shown) [chloroquine]
minimum concentration needed to effect HLA-DR stabilization [1]: 2 mM
stabilization of HLA-DR expression at 1 mM [1]: insufficient to effect stabilization
stabilization of HLA-DR fluorescence signal over incubation time [1]: reliably stabilized HLA-DR fluorescence; also recorded: stabilizes the HLA-DR fluorescence signal
stabilization of CD11b fluorescent signal over staining time [3]: can similarly be stabilized

CCN(CCO)CCCC(C)Nc1ccnc2cc(Cl)ccc12 (stereo not shown) [hydroxychloroquine]
stabilizing HLA-DR signal compared with chloroquine ([1]; experiments not shown): equally effective

C[C@H]1CCC/C=C/[C@@H]2C[C@H](O)C[C@H]2[C@H](O)/C=C/C(=O)O1 [Brefeldin A]
stabilization of HLA-DR fluorescence signal over incubation time [1, 4]: no significant stabilization
